Molecular target: T1, human mPGES-1 (Homo sapiens, UniProt O14684)
T1 construct: made in house; host or cells: FreeStyle CHO-S cells (Chinese hamster ovary), transient transfection with pcDNA3.1(+)/human mPGES-1; microsome fraction used
T1 sequence (O14684 1-152): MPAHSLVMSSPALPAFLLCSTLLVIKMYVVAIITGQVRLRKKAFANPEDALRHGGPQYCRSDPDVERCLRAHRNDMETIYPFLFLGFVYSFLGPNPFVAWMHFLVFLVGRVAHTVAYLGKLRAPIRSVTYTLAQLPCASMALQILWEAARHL
Assay: Evaluation of human mPGES-1 enzyme inhibitory activity (PGE2 measured by HTRF, microsome fraction of CHO-S cells expressing human mPGES-1)
Format: biochemical
Conditions: IC50 value; microsome fraction of CHO-S cells expressing human mPGES-1, PGE2 by HTRF
Method in brief: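 Enzyme source: microsomes from CHO-S cells transfected with human mPGES-1 and cultured 48 hr, diluted to 5 μg/mL protein in reduced GSH (12.5 mmol/L KPB solution). Test articles were in 0.1 mol/L potassium phosphate pH 7.4, final DMSO 2% (v/v). PGE2 formed was quantified by HTRF.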

Going from `CC(C)(C)COc1ccc(-c2nc(O)nc(-c3cc(CCO)ccc3Cl)n2)cc1` [Example 1-198] to `CCNCc1ccc(Cl)c(-c2nc(O)nc(-c3ccc(OCC(C)(C)C)cc3)n2)c1` [Example 1-210], the IC50 rises from 14 nM to 288 nM (21-fold).

Compared with `CO[C@](C)(C(=O)NCc1ccc(Cl)c(-c2nc(O)nc(-c3ccc(OCC(C)C)cc3)n2)c1)C(F)(F)F` [Example 1-123], `CC(C)(C)COc1ccc(-c2nc(O)nc(-c3cc(CNC(=O)C(C)(C)C(F)(F)F)ccc3Cl)n2)cc1` [Example 1-86, N-(4-chloro-3-{4-[4-(2,2-dimethylpropoxy)phenyl]-6-hydroxy-1,3,5-triazin-2-yl}benzyl)-3,3,3-trifluoro-2,2-dimethylpropionamide] is 2.5-fold higher in IC50: 2.3 nM for the first, 5.8 nM for the second. The first is the more potent here.

Compared with `CN(Cc1ccc(Cl)c(-c2nc(O)nc(-c3ccccc3)n2)c1)C(=O)C1Cc2ccccc2C1` [Example 1-246], `CCC(=O)N(C)Cc1ccc(Cl)c(-c2nc(O)nc(-c3ccccc3)n2)c1` [Example 1-224] is 19-fold higher in IC50: 307 nM for the first, 5800 nM for the second.

Going from `CCOc1ccc(-c2nc(O)nc(-c3c(C)cccc3C)n2)cc1` [Example 2-40] to `CCCCOc1ccc(-c2nc(O)nc(-c3c(C)cccc3C)n2)cc1` [Example 2-70], the IC50 falls from 1300 nM to 158 nM (8.2-fold).

Compared with `CC(=O)NCc1ccc(Cl)c(-c2nc(O)nc(-c3ccc(C(F)(F)F)cc3)n2)c1` [Example 1-16], `COC(=O)NCc1ccc(Cl)c(-c2nc(O)nc(-c3ccc(C(F)(F)F)cc3)n2)c1` [Example 1-22] is 3.7-fold lower in IC50: 10 nM for the first, 2.7 nM for the second.

Compared with `CCCC(=O)N(C)Cc1ccc(Cl)c(-c2nc(O)nc(-c3ccccc3)n2)c1` [Example 1-225], `COCC(C)(C)C(=O)N(C)Cc1ccc(Cl)c(-c2nc(O)nc(-c3ccccc3)n2)c1` [Example 1-239] is 9.8-fold lower in IC50: 4200 nM for the first, 428 nM for the second.

First: Cc1cccc(COc2cccc(C(F)(F)F)c2-c2nc(O)nc(-c3ccc(C#Cc4ccc(OC(F)(F)F)cc4)cc3)n2)n1 [Example 2-130]
Second: Cc1ccc(COc2cccc(C(F)(F)F)c2-c2nc(O)nc(-c3ccc(C#Cc4ccccc4)cc3)n2)nc1 [Example 2-114]
The IC50 of the first is 7.1-fold higher: 35 nM for the first, 4.9 nM for the second. The second is the more potent here.

Going from `Oc1nc(-c2ccc(C(F)(F)F)cc2)nc(-c2c(Cl)cccc2OCc2ccccn2)n1` [Example 2-45] to `CC(C)COc1cccc(Cl)c1-c1nc(O)nc(-c2ccc(C(F)(F)F)cc2)n1` [Example 2-33], the IC50 rises from 12 nM to 102 nM (8.5-fold). The first is the more potent here.

Going from `N#Cc1cccc(OCc2ccccn2)c1-c1nc(O)nc(-c2ccc(C#Cc3ccccc3)cc2)n1` [Example 2-88] to `Cc1ccccc1C#Cc1ccc(-c2nc(O)nc(-c3c(OCc4ccccn4)cccc3C(F)(F)F)n2)cc1` [Example 2-100], the IC50 rises from 2 nM to 5.6 nM (2.8-fold).

`Cc1cccc(COc2cccc(Cl)c2-c2nc(O)nc(-c3ccc(C#Cc4ccccc4)cc3)n2)n1` [Example 2-87] and `C[C@H](Oc1cccc(Cl)c1-c1nc(O)nc(-c2ccc(C#Cc3ccccc3)cc2)n1)c1ccccn1` [Example 2-86] are within 1.5-fold of each other in IC50: 1.8 nM for the first, 2.2 nM for the second.

Going from `CCO[C@@](C)(C(=O)N(C)Cc1ccc(Cl)c(-c2nc(O)nc(-c3ccccc3)n2)c1)C(F)(F)F` [Example 1-253] to `CCO[C@](C)(C(=O)N(C)Cc1ccc(Cl)c(-c2nc(O)nc(-c3ccccc3)n2)c1)C(F)(F)F` [Example 1-252], the IC50 falls from 791 nM to 511 nM (1.5-fold).

Going from `CC1(C(=O)NCc2ccc(Cl)c(-c3nc(O)nc(-c4ccccc4)n3)c2)CCCCC1` [Example 1-52] to `O=C1N(Cc2ccc(Cl)c(-c3nc(O)nc(-c4ccccc4)n3)c2)CC12CCCC2` [Example 1-255], the IC50 rises from 0.6 nM to 45 nM (75-fold). The first is the more potent here.

Going from `CC(C)(C)COc1ccc(-c2nc(O)nc(-c3c(Cl)cccc3OCc3ncccn3)n2)cc1` [Example 2-68] to `CC(C)COCc1ccc(Cl)c(-c2nc(O)nc(-c3ccc(OCC(C)(C)C)cc3)n2)c1` [Example 1-204], the IC50 falls from 672 nM to 34 nM (20-fold).

Compared with `CC(C)(C)C(=O)NCc1ccc(Cl)c(-c2nc(O)nc(-c3cccc(C(C)(C)C)c3)n2)c1` [Example 1-57], `CCc1cccc(-c2nc(O)nc(-c3cc(CNC(=O)C(C)(C)C)ccc3Cl)n2)c1` [Example 1-55] is 2.2-fold higher in IC50: 0.5 nM for the first, 1.1 nM for the second.

First: CC(C)COc1ccc(-c2nc(O)nc(-c3cc(CNC(=O)C(C)(C)C(F)(F)F)ccc3Cl)n2)cc1C(F)(F)F [Example 1-120]
Second: CC(C)COc1ccc(-c2nc(O)nc(-c3cc(CNC(=O)C(C)(C)C(F)(F)F)ccc3Cl)n2)cn1 [Example 1-182]
The IC50 of the first is 30-fold higher: 48 nM for the first, 1.6 nM for the second. The second is the more potent here.

`CC(C)(C(=O)NCc1ccc(Cl)c(-c2nc(O)nc(-c3cccc(OC(F)(F)F)c3)n2)c1)C(F)(F)F` [Example 1-77] and `CC(F)(F)c1ccc(-c2nc(O)nc(-c3cc(CNC(=O)C(C)(C)C(F)(F)F)ccc3Cl)n2)cc1` [Example 1-119] are within 1.5-fold of each other in IC50: 0.9 nM for the first, 1 nM for the second.

Going from `CN(Cc1ccc(Cl)c(-c2nc(O)nc(-c3ccc(C#CC4CCCCC4)cc3)n2)c1)C(=O)C(C)(C)C(F)(F)F` [Example 1-213] to `CC#CCOc1ccc(-c2nc(O)nc(-c3cc(CNC(=O)C(C)(C)C(F)(F)F)ccc3Cl)n2)cc1` [Example 1-146], the IC50 falls from 88 nM to 0.4 nM (220-fold). The second is the more potent here.

Compared with `Cc1ccc(Cl)c(-c2nc(O)nc(-c3ccc(C(F)(F)F)cc3)n2)c1` [Example 1-4], `OCc1ccc(Cl)c(-c2nc(O)nc(-c3ccc(C(F)(F)F)cc3)n2)c1` [Example 1-12] is 1.7-fold lower in IC50: 25 nM for the first, 15 nM for the second.

Compared with `CO[C@](C)(C(=O)NCc1ccc(Cl)c(-c2nc(O)nc(-c3ccc(F)c(C4CC4)c3)n2)c1)C(F)(F)F` [Example 1-165], `CCO[C@](C)(C(=O)NCc1ccc(Cl)c(-c2nc(O)nc(-c3ccccc3)n2)c1)C(F)(F)F` [Example 1-96] is 90-fold higher in IC50: 0.9 nM for the first, 81 nM for the second. The first is the more potent here.

Going from `Cc1cccc(C)c1-c1nc(O)nc(-c2ccc(OCc3ccccc3)cc2)n1` [Example 2-5] to `Cc1cccc(C)c1-c1nc(O)nc(-c2ccc(OCC(C)C)cc2)n1` [Example 2-42], the IC50 rises from 101 nM to 239 nM (2.4-fold).

Compared with `Cc1cccc(C)c1-c1nc(O)nc(-c2ccc(OCC3CCCCC3)cc2)n1` [Example 2-37], `CCC(CC)Oc1ccc(-c2nc(O)nc(-c3c(C)cccc3C)n2)cc1` [Example 2-73] is 9.8-fold higher in IC50: 41 nM for the first, 402 nM for the second. The first is the more potent here.

Going from `CCCC1(CCC)CN(Cc2ccc(Cl)c(-c3nc(O)nc(-c4ccccc4)n3)c2)C1=O` [Example 1-260] to `CC1(C)CN(Cc2ccc(Cl)c(-c3nc(O)nc(-c4ccccc4)n3)c2)C1=O` [Example 1-236], the IC50 rises from 147 nM to 263 nM (1.8-fold).

First: CC(C)(C)C(=O)NCc1ccc(Cl)c(-c2nc(O)nc(-c3ccc(C(F)(F)F)cc3)n2)c1 [Example 1-24]
Second: CC(C)(C)NC(=O)Cc1ccc(Cl)c(-c2nc(O)nc(-c3ccc(C(F)(F)F)cc3)n2)c1 [Example 1-41]
The IC50 of the first is 3.8-fold lower: 0.6 nM for the first, 2.3 nM for the second. The first is the more potent here.

Going from `COC(C)(C)C(=O)NCc1ccc(Cl)c(-c2nc(O)nc(-c3ccccc3)n2)c1` [Example 1-53] to `CC(C)(C(=O)NCc1ccc(Cl)c(-c2nc(O)nc(-c3ccccc3)n2)c1)c1ccccc1` [Example 1-202], the IC50 rises from 4.5 nM to 8.2 nM (1.8-fold). The first is the more potent here.

Going from `CC(C)(C)C1CCC2(CC1)CN(Cc1ccc(Cl)c(-c3nc(O)nc(-c4ccccc4)n3)c1)C2=O` (single isomer, unassigned) [Example 1-266, 7-tert-butyl-2-[4-chloro-3-(4-hydroxy-6-phenyl-1,3,5-triazin-2-yl)benzyl]-2-azaspiro[3.5]nonan-1-one] to `CC(C)(C)OC(=O)N1CCC2(CC1)CCN(Cc1ccc(Cl)c(-c3nc(O)nc(-c4ccccc4)n3)c1)C2=O` [Example 1-265], the IC50 rises from 11 nM to 56 nM (5.1-fold).

Compared with `Cc1ccc(F)cc1-c1nc(O)nc(-c2ccc(C(F)(F)F)cc2)n1` [Example 1-1], `Cc1cccc(Cl)c1-c1nc(O)nc(-c2ccc(C(F)(F)F)cc2)n1` [Example 2-19] is 3.9-fold lower in IC50: 813 nM for the first, 211 nM for the second. The second is the more potent here.

`Cc1cccc(C)c1-c1nc(O)nc(-c2cccc(F)c2)n1` [Example 2-15] and `Cc1cccc(-c2nc(O)nc(-c3c(C)cccc3C)n2)c1` [Example 2-13] are within 1.5-fold of each other in IC50: 16400 nM for the first, 23100 nM for the second.

First: CCOC(=O)NCc1ccc(Cl)c(-c2nc(O)nc(-c3ccc(C(F)(F)F)cc3)n2)c1 [Example 1-38]
Second: CC(=O)OCc1ccc(Cl)c(-c2nc(O)nc(-c3ccc(C(F)(F)F)cc3)n2)c1 [Example 1-25]
The IC50 of the first is 72-fold lower: 1.5 nM for the first, 108 nM for the second. The first is the more potent here.

Compared with `Oc1nc(-c2ccc(C(F)(F)F)cc2)nc(-c2cc(OC(F)(F)F)ccc2Cl)n1` [Example 1-5], `O=S(=O)(NCc1ccc(Cl)c(-c2nc(O)nc(-c3ccc(C(F)(F)F)cc3)n2)c1)C1CCCC1` [Example 1-42] is 670-fold lower in IC50: 672 nM for the first, 1 nM for the second. The second is the more potent here.

First: CN(Cc1ccc(Cl)c(-c2nc(O)nc(-c3ccc(OCC(C)(C)C)cc3)n2)c1)S(=O)(=O)C(C)(C)C [Example 1-223]
Second: CC(C)(CC(F)(F)F)C(=O)NCc1ccc(Cl)c(-c2nc(O)nc(-c3ccc(OCC4CC4)cc3)n2)c1 [Example 1-166]
The IC50 of the first is 6.4-fold higher: 7 nM for the first, 1.1 nM for the second. The second is the more potent here.

Going from `Oc1nc(-c2ccc(C#Cc3ccccc3)cc2)nc(-c2c(OCc3ncccc3F)cccc2C(F)(F)F)n1` [Example 2-111] to `Oc1nc(-c2ccc(C#CC3CCCC3)cc2)nc(-c2c(Cl)cccc2OCc2ccccn2)n1` [Example 2-91], the IC50 falls from 4.4 nM to 1.6 nM (2.8-fold). The second is the more potent here.

Compared with `CCC[C@@H](C)Oc1ccc(-c2nc(O)nc(-c3cc(CNC(=O)C(C)(C)C(F)(F)F)ccc3Cl)n2)cc1` [Example 1-156], `CCC1(COc2ccc(-c3nc(O)nc(-c4cc(CNC(=O)C(C)(C)C(F)(F)F)ccc4Cl)n3)cc2)COC1` [Example 1-145] is 8.2-fold lower in IC50: 4.1 nM for the first, 0.5 nM for the second.

Compared with `CCc1cc(-c2nc(O)nc(-c3cc(CNC(=O)C4(C(F)(F)F)CC4)ccc3Cl)n2)ccc1F` [Example 1-152], `O=C(NCc1ccc(Cl)c(-c2nc(O)nc(-c3cccc(C(F)(F)F)c3)n2)c1)C1(C(F)(F)F)CCCC1` [Example 1-79] is 3-fold higher in IC50: 0.4 nM for the first, 1.2 nM for the second. The first is the more potent here.

`Cc1cccc(C)c1-c1nc(O)nc(-c2ccc(C(C)C)cc2)n1` [Example 2-8] gave an IC50 of 1900 nM.

Same assay, conditions: at 30 μM test article

`CCC(=O)N(CC)Cc1ccc(Cl)c(-c2nc(O)nc(-c3ccccc3)n2)c1` [Example 1-261] was tested, and the inhibition at 30 µM was 44%.

Source: patent US12398111B2, “Triazine compounds and pharmaceutical use thereof” (Japan Tobacco Inc., priority 2014, dated 2025)
